Data: PMC3990705, “A p38 Substrate-Specific MK2-EGFP Translocation Assay for Identification and Validation of New p38 Inhibitors in Living Cells: A Comprising Alternative for Acquisition of Cellular p38 Inhibition Data” (PLoS ONE, 2014)
Like-named read-outs stand apart in the source and are kept apart here.

Key:
[1] = biological target: T1, p38 MAPK (Homo sapiens, UniProt Q16539); experiment: MK2-EGFP translocation assay (High Content Analysis); type: cell-based; conditions: for nuc/cyt ratio at 15 nM ± SD: 15 nM compound, activated U2OS MK2-EGFP cells, N = 3; for potency towards p38 inhibition in the translocation screen: 1.5 µM, 150 nM, 15 nM, normalized to Skepinone-L
T1 construct: endogenous in cells; host or cells: U2OS-MK2-EGFP-clone-RA#2
T1 sequence (Q16539 whole entry): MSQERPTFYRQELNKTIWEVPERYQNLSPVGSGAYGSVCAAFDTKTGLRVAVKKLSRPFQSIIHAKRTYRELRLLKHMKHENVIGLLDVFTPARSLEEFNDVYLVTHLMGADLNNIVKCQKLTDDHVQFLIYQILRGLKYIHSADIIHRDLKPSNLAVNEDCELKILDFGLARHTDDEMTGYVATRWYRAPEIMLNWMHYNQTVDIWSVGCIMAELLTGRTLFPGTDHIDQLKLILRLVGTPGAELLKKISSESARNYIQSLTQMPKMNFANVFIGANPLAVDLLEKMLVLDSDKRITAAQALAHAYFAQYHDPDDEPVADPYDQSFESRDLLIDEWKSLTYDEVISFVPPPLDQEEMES
Protocol: Screening was performed in biological duplicates on different days and different cell line passages. For cellular screening ∼ 12.500 cells were seeded into 96-well clear tissue-culture micro-plates (Bio-One µClear, Greiner, Germany) and grown until 90% confluence. The Rac/p38 MAPK pathway was activated by exchanging normal growth media with hyperosmotic media. […] Plates were mixed thoroughly and incubated at 37°C and 5% CO2 in a humidified chamber atmosphere. After 80–90 minutes the treatment was stopped by disposing the media. Subsequently cell were fixed using 3% PFA/PBS in 1x PBS at pH 7.4 for 15 minutes and washed with PBS and PBST (0.05% Tween-20) following nuclear DNA staining using 150 ng/mL DAPI in 1xPBS/35 µg/mL RNAseA. Finally, plates were transferred in an automated cytomat incubator (Thermo Scientific, Germany) combined with a robotic plate handling device (PAA, UK) and subjected to automated image acquisition.
Images of EGFP and DAPI fluorescent cells were acquired using an Image Xpress micro XL microscope (Molecular Devices, Germany). […] On average 400 cells per well were imaged, allowing reliable statistical measures and quantification.
Automated image analysis was carried out using the MetaXpress software (Molecular Devices, Germany). Fluorescence intensity ratios were calculated using the average of the cellular MK2-EGFP fluorescence intensity (Cell: nuclear inner/outer mean intensity) of all images/sites per well. p38 activation was defined as positive when the nucleocytoplasmic MK2-fluorescence intensity ratio was below 0.7. For further analysis, the average of the mean of the entire plate was calculated and used for internal plate normalization. For quality assessment of the screening the Log-Z-score was determined. Obtained values were calculated on the normalized nucleocytoplasmic MK2-fluorescence intensity ratio (average of the mean) of respective data-points.
Image analysis and result calculations were performed as described.

[2] = tested on: TNFα release in human whole blood; experiment: Whole blood assay (WBA), TNFα release after LPS stimulation; type: cell-based; conditions: N = 3, read-out: WBA TNFα IC50 ± SD
Protocol: For determination of inhibitor potency of the compounds by detection of TNFα release in human whole blood an in vitro assay using human whole blood stimulated with LPS for TNFα synthesis is a reliable test system for inhibitors of cytokine synthesis, especially for p38 MAP kinase inhibitors as TNFα synthesis is mainly mediated by p38 MAP kinase. Therefore, the synthesis and release of proinflammatory cytokines in human whole blood from a healthy donor is stimulated using a LPS solution (1 µg/mL, Sigma-Aldrich, Germany) after preincubation of inhibitor dilution (as described in [26]). After 2.5 hours of incubation in a 5% CO2 incubator, the stimulation is stopped and plasma is obtained by centrifugation of the whole blood, followed by TNFα readout from the plasma using a commercially available TNFα ELISA kit (R&D Systems, Germany). The blood sample was obtained with the written informed consent of the donor to participate in this study. The ethics committee (Ethik-Kommission der Medizinischen Fakultät und am Universitätsklinikum Tuebingen) state that an ethical statement is not mandatory when the researchers use their own blood/plasma for experiments. The german statutes and the Declaration of Helsinki are not aimed at experiments using samples provided by the principal investigator him or herself. In the opinion of the committee, the Declaration of Helsinki is designed to protect the patient’s interests and to avoid abuse of the patient’s material.

[3] = biological target: p38α MAPK (Homo sapiens, UniProt Q16539); experiment: Biochemical p38 MAPK activity assay (BAA), ELISA of ATF-2 phosphorylation
Chain of p38α MAPK (Q16539 whole entry): as above
Protocol: Kinase activity assays were used for identification of p38α MAPK and JNK3 inhibitors. The experimental settings and screening procedures are previously described by Goettert et al., [28].
Briefly, the ELISA assay was performed using 96-well plates (MaxiSorp, NUNC, Germany) by measuring the activity of p38α MAPK after incubation with a candidate inhibitor. Therefore, the phosphorylation degree of activation transcription factor 2 (ATF-2) is detected by a monoclonal peroxidase conjugated antibody in a dilution of 1∶5000 (Sigma-Aldrich, Germany). This monoclonal anti-phospho-ATF-2 (Thr69/71) peroxidase-conjugated antibody reacts specifically with dually phosphorylated ATF-2, detecting neither the mono- nor the unphosphorylated kinase substrate. ATF- 2 is a natural substrate of the p38 MAPKs and JNK3, and its phosphorylation is inversely correlated with the inhibitor potency.

[4] = tested on: JNK3; experiment: Phospho-Ser63-c-Jun/JNK assay in U2OS MK2-EGFP cells; type: cell-based, human; conditions: phospho-c-Jun Ser-63 endpoint, multiplexed with MK2-EGFP assay
Protocol: Compound specificity towards p38 and JNK were analyzed in a secondary JNK activity assay detecting phosphorylated c-Jun (Ser63) as a substrate of JNK. This assay could be easily multiplexed with the MK2-EGFP assay as described by Henriksen et al. [31]. Briefly, stimulated U2OS-MK2-EGFP-clone-RA#2 cells were fixed in 96-well plates with 4% PFA/PBS, blocked and permeabilized with protein-free blocking media (Pierce, USA) in TBS with 0.1% Triton X-100. Samples were incubated overnight at 4°C with an antibody directed against phospho-c-Jun Ser63 (#9261, Cell Signaling Technology, USA) diluted 1∶150 in TBST followed by detection with an Alexa647-goat-α-rabbit (Life Technologies, Germany). After washing procedures cells were subjected to image acquisition and automated image-analysis as described.

[5] = tested on: JNK; design: method as in PMID 11717429; conditions: cited from earlier work
[6] = tested on: U2OS MK2-EGFP cells; experiment: Cellular viability assay (AlamarBlue); type: cell-based, human; conditions: 24 h, 15 nM–15 µM
Protocol: The cellular viability assay was performed according to standard procedures (for details see AlamarBlue manual #DAL1100, Life Technologies, Germany). Briefly, ∼ 15.000 cells of the U2OS MK2-EGFP clone-RA#2 cell line were plated in 96 well µclear plate and grown in growth media until sub-confluency. Subsequently, cells were treated with compounds in indicated concentrations for 24 h at 37°C in a humidified chamber containing 5% CO2. After compound treatment the amount of living cells was monitored microscopically and cell-viability was determined using the AlamarBlue assay. For this purpose, resazurin was added freshly to the growth media devoid of phenol red as described. The media premixed with the resazurin substrate was pre-warmed to 37°C and 200 µL were added to the pre-treated cells in the 96-well plate. Following incubation at 37°C, 5% CO2 for 4 h the fluorescence of the media was measured in a PHERAstar photometer (BMG Labtech, USA) with the filter sets: Ex: 540nm/Em: 580nm.

[7] = inhibition of phosphorylation of ATF2, N = 3, read-out: BAA p38 IC50 ± SD

| SMILES | nuc/cyt ratio at 15 nM ± SD [1] | IC50 [2] [nM] | IC50 ([3]; read-out: BAA p38 IC50 ± SD) [nM] | further results |
| --- | --- | --- | --- | --- |
| CNC(=O)c1ccc2c(c1)C(=O)c1ccc(Nc3ccc(F)cc3F)cc1CC2 [LN1496] | 1,088±0,0231 | 37 | 3.2 | – |
| Oc1c2ccccc2c2c3c(cccc13)N=N2 [SP600125] | – | – | – | inhibition of p38 and JNK3 (selectivity) [4]: Selective inhibition of JNK3 activity; selectivity over p38 [5]: 300 fold |
| CC(C)Sc1nc(-c2ccc(F)cc2)c(-c2ccnc(NC3CCOCC3)c2)[nH]1 [RN4296] | 1,288±0,2483 | – | 3.7 | potency towards p38 inhibition in the translocation screen [1]: most potent compound towards p38 inhibition |
| CC(C)C(C)Nc1cc(-c2[nH]c(SCCCO)nc2-c2ccc(F)cc2)ccn1 (stereo not shown) [LN949] | 1,111±0,0012 | 173 | 11.7 | – |
| CC(C)Nc1cc(-c2[nH]c(SCCO)nc2-c2ccc(F)cc2)ccn1 [LN957] | 1,158±0,0756 | 129 | – | IC50 [3, 7]: 3 nM |
| Nc1ccccc1Nc1ccc2c(c1)CCc1ccc(OC[C@H](O)CO)cc1C2=O [LN809] | 1,064±0,1062 | 47 | 10.1 | – |
| O=C(Nc1cc(Nc2ccc3c(c2)CCc2ccc(OCCN4CCOCC4)cc2C3=O)c(F)cc1F)c1ccsc1 [LN1637] | 1,206±0,0326 | 6 | – | IC50 [3, 7]: 0.5 nM; IC50 ([3]; summary of Table 1, read-out: BAA, IC50): 5 nM |
| O=C(NCC(O)CO)c1ccc2c(c1)C(=O)c1ccc(Nc3cc(NC(=O)c4ccsc4)c(F)cc3F)cc1CC2 (stereo not shown) [LN1878] | 1,211±0,1416 | – | 1.9 | – |
| O=C(Nc1cc(Nc2ccc3c(c2)CCc2ccc(OCCN4CCOCC4)cc2C3=O)c(F)cc1F)c1ccccc1 [LN1503] | 1,057±0,0332 | 221 | 1.3 | – |
| O=C1c2ccc(Nc3ccc(F)cc3F)cc2CCc2ccc(OC[C@H](O)CO)cc21 [Skepinone-L, reference compound] | – | 59 | – | cellular effectiveness in log-dilution experiments ([1]; 0 µM –100 µM, living cells): inhibits p38 from 10 nM –1 µM in living cells; potency towards p38 inhibition in the translocation screen [1]: outstanding potency; effect on nuclear export of MK2-EGFP ([1]; 10 µM compound): abolishes nuclear export of MK2-EGFP; cytotoxic effects / cellular viability [6]: do not affect cellular viability |
| O=C(Nc1cc(Nc2ccc3c(c2)CCc2ccc(OCCN4CCOCC4)cc2C3=O)ccc1F)c1ccoc1 [LN1311] | 1,088±0,0781 | 106 | 1.1 | – |
| CC(C)Nc1cc(-c2[nH]c(SC[C@H](O)CO)nc2-c2ccc(F)cc2)ccn1 [LN954] | 1,068±0,0406 | 182 | 5.7 | – |
